Data: patent US7977387B2, “Aminobenzophenone compounds” (Leo Pharma A/S, priority 2003, dated 2011)

How the values were obtained:
[1] = tested on: TNF-α; assay: Inhibition of TNF-α secretion in LPS stimulated peripheral blood mononuclear cells; format: cell-based; conditions: PBMC; LPS stimulated human peripheral blood mononuclear cells, 18 hours, ELISA; read-out: The median inhibition concentration (IC50, nM) of TNF-α
Method: (§1) To study the effect of compounds of the present invention in vitro, the inhibition of IL-1β and TNF-α secretion was determined using the following procedure:
(§2) Cytokine production was measured in the media from lipopolysaccharide (LPS) stimulated peripheral blood mononuclear cells. The mononuclear cells were isolated from human peripheral blood by Lymphoprep® (Nycomed, Norway) fractionation and suspended in RPMI 1640 (growth medium) with foetal calf serum (FCS, 2%), at a concentration of 5×10^5 cells/ml. The cells were incubated in 24-well tissue culture plates in 1 ml aliquots. Test compounds were dissolved in dimethylsulfoxide (DMSO, 10 mM) and were diluted with the medium. Compounds were added to the cells for 30 minutes, then LPS ([…] final concentration) was added. The plates were incubated for 18 hours, and the concentration of IL-β and TNF-α in the medium was determined by enzyme-linked immunosorbent assays. The median inhibitory concentrations (IC50) of the compounds were calculated.

[2] = tested on: IL-1β; assay: Inhibition of IL-1β secretion in LPS stimulated peripheral blood mononuclear cells; format: cell-based; conditions: PBMC; LPS stimulated human peripheral blood mononuclear cells, 18 hours, ELISA; read-out: The median inhibition concentration (IC50, nM) of IL-1β
Method: as §1, §2

Structure (SMILES)	IC50 [1] [nM]	IC50 [2] [nM]
COCCNC(=O)c1ccc(C)c(C(=O)c2ccc(Nc3ccc(F)cc3C)cc2Cl)c1 [Compound 106, 3-[2-Chloro-4-(4-fluoro-2-methyl-phenylamino)benzoyl]-N-(2-methoxyethyl)-4-methylbenzamide]	1	2
Cc1cc(F)ccc1Nc1ccc(C(=O)c2cc(C(=O)NCCCN3CCOCC3)ccc2C)c(Cl)c1 [Compound 107, 3-[2-Chloro-4-(4-fluoro-2-methylphenylamino)benzoyl]-4-methyl-N-(3-morpholin-4-yl-propyl)benzamide]	3.2	3.2
Cc1cc(F)ccc1Nc1ccc(C(=O)c2cc(C(=O)NCc3ccncc3)ccc2C)c(Cl)c1 [Compound 109]	3.2	4
Cc1ccc(C(=O)NCCCO)cc1C(=O)c1ccc(Nc2ccccc2N)cc1Cl [Compound 118, 3-[4-(2-Aminophenylamino)-2-chlorobenzoyl]-N-(3-hydroxypropyl)-4-methylbenzamide]	2	2.2
Cc1cc(F)ccc1Nc1ccc(C(=O)c2cc(C(=O)NCCO)ccc2C)c(Cl)c1 [Compound 119, 3-[2-Chloro-4-(4-fluoro-2-methylphenylamino)benzoyl]-N-(2-hydroxyethyl)-4-methylbenzamide]	0.4	1.3
CNC(=O)c1ccc(C)c(C(=O)c2ccc(Nc3ccc(Cl)cc3F)cc2Cl)c1 [Compound 121, 3-[2-Chloro-4-(4-chloro-2-fluoro-phenylamino)-benzoyl]-4,N-dimethyl-benzamide]	0.6	2.8
CCOC(=O)CNC(=O)CNC(=O)c1ccc(C)c(C(=O)c2ccc(Nc3ccc(Cl)cc3F)cc2Cl)c1 [Compound 122, (2-{3-[2-Chloro-4-(4-chloro-2-fluoro-phenylamino)-benzoyl]-4-methyl-benzoylamino}-acetylamino)-acetic acid ethyl ester]	0.2	0.5
Cc1ccc(C(=O)N[C@H]2CC[C@@H](O)CC2)cc1C(=O)c1ccc(Nc2ccc(Cl)cc2F)cc1Cl [Compound 135, 3-[2-Chloro-4-(4-chloro-2-fluoro-phenylamino)-benzoyl]-N-cis-(4-hydroxy-cyclohexyl)-4-methyl-benzamide]	2	4
Cc1ccc(C(=O)N[C@H]2CC[C@H](O)CC2)cc1C(=O)c1ccc(Nc2ccc(Cl)cc2F)cc1Cl [Compound 136, 3-[2-Chloro-4-(4-chloro-2-fluoro-phenylamino)-benzoyl]-N-trans-(4-hydroxy-cyclohexyl)-4-methyl-benzamide]	2	4
COc1ccc(C(=O)NCC(O)CO)cc1C(=O)c1ccc(Nc2ccc(F)cc2F)cc1Cl (stereo not shown) [Compound 143, 3-[2-Chloro-4-(2,4-difluoro-phenylamino)-benzoyl]-N-(2,3-dihydroxy-propyl)-4-methoxy-benzamide]	1.6	2.5
COc1ccc(C(=O)NCC(N)=O)cc1C(=O)c1ccc(Nc2ccc(F)cc2F)cc1Cl [Compound 144, N-Carbamoylmethyl-3-[2-chloro-4-(2,4-difluoro-phenylamino)-benzoyl]-4-methoxy-benzamide]	0.6	1
Cc1ccc(C(=O)NCC(F)(F)C(F)(F)F)cc1C(=O)c1ccc(Nc2ccc(F)cc2F)cc1Cl [Compound 154, 3-[2-Chloro-4-(2,4-difluoro-phenylamino)-benzoyl]-4-methyl-N-(2,2,3,3,3-pentafluoro-propyl)-benzamide]	2.5	3.2
CCOC(=O)CNC(=O)c1ccc(C)c(C(=O)c2ccc(Nc3ccc(F)cc3F)cc2Cl)c1 [Compound 158, {3-[2-Chloro-4-(2,4-difluoro-phenylamino)-benzoyl]-4-methyl-benzoylamino}-acetic acid ethyl ester]	0.2	0.6
Cc1ccc(C(=O)NCCCCO)cc1C(=O)c1ccc(Nc2ccc(F)cc2F)cc1Cl [Compound 159, 3-[2-Chloro-4-(2,4-difluoro-phenylamino)-benzoyl]-N-(4-hydroxy-butyl)-4-methyl-benzamide]	1.3	7.9
COC(=O)CCC(=O)CNC(=O)c1ccc(C)c(C(=O)c2ccc(Nc3ccc(F)cc3F)cc2Cl)c1 [Compound 167, 5-{3-[2-chloro-4-(2,4-difluoro-phenylamino)-benzoyl]-4-methyl-benzoylamino}-4-oxo-pentanoic acid methyl ester]	2	1.7
Cc1ccc(C(=O)NCC(=O)NCCC(N)=O)cc1C(=O)c1ccc(Nc2ccc(F)cc2F)cc1Cl [Compound 168, N-[(2-Carbamoyl-ethylcarbamoyl)-methyl]-3-[2-chloro-4-(2,4-difluoro-phenylamino)-benzoyl]-4-methyl-benzamide]	2.5	2.5

Structure (SMILES)	IC50 [1] [nM]	IC50 [2] [nM]
CCOC(=O)CNC(=O)CNC(=O)c1ccc(C)c(C(=O)c2ccc(Nc3ccc(F)cc3F)cc2Cl)c1 [Compound 169, (2-{3-[2-Chloro-4-(2,4-difluoro-phenylamino)-benzoyl]-4-methyl-benzoylamino}-acetylamino)-acetic acid ethyl ester]	0.4	0.4
COc1ccc(C(=O)NC(C)(CO)CO)cc1C(=O)c1ccc(Nc2c(F)cccc2F)cc1Cl [Compound 180, 3-[2-Chloro-4-(2,6-difluoro-phenylamino)-benzoyl]-N-(2-hydroxy-1-hydroxymethyl-1-methyl-ethyl)-4-methoxy-benzamide]	3.2	2.5
CCOC(=O)CNC(=O)c1ccc(OC)c(C(=O)c2ccc(Nc3c(F)cccc3F)cc2Cl)c1 [Compound 182]	2.2	8.9
CCOC(=O)CNC(=O)CNC(=O)c1ccc(OC)c(C(=O)c2ccc(Nc3c(F)cccc3F)cc2Cl)c1 [Compound 183, (2-{3-[2-Chloro-4-(2,6-difluoro-phenylamino)-benzoyl]-4-methoxy-benzoylamino}-acetylamino)-acetic acid ethyl ester]	0.7	2
Cc1ccc(C(=O)NCCO)cc1C(=O)c1ccc(Nc2ccc(F)cc2)cc1Cl [Compound 190, 3-[2-Chloro-4-(4-fluoro-phenylamino)-benzoyl]-N-(2-hydroxy-ethyl)-4-methyl-benzamide]	0.3	0.6
Cc1ccc(C(=O)NCCO)cc1C(=O)c1ccc(Nc2ccccc2)cc1Cl [Compound 191, 3-(2-Chloro-4-phenylamino-benzoyl)-N-(2-hydroxy-ethyl)-4-methyl-benzamide]	0.5	1.1
Cc1ccc(C(=O)NCCO)cc1C(=O)c1ccc(Nc2cccc(F)c2)cc1Cl [Compound 193, 3-[2-Chloro-4-(3-fluoro-phenylamino)-benzoyl]-N-(2-hydroxy-ethyl)-4-methyl-benzamide]	2.5	4
COc1ccc(C(=O)NCCO)cc1C(=O)c1ccc(Nc2ccc(F)cc2)cc1Cl [Compound 194, 3-[2-Chloro-4-(4-fluoro-phenylamino)-benzoyl]-N-(2-hydroxy-ethyl)-4-methoxy-benzamide]	0.3	0.6
COc1ccc(C(=O)NCCO)cc1C(=O)c1ccc(Nc2ccccc2)cc1Cl [Compound 195, 3-(2-Chloro-4-phenylamino-benzoyl)-N-(2-hydroxy-ethyl)-4-methoxy-benzamide]	1	2.2
COc1ccc(C(=O)NCCF)cc1C(=O)c1ccc(Nc2ccc(F)cc2)cc1Cl [Compound 197, 3-[2-Chloro-4-(4-fluoro-phenylamino)-benzoyl]-N-(2-fluoro-ethyl)-4-methoxy-benzamide]	1.8	3.2
COc1ccc(C(=O)NCCF)cc1C(=O)c1ccc(Nc2ccccc2)cc1Cl [Compound 201, 3-(2-Chloro-4-phenylamino-benzoyl)-N-(2-fluoro-ethyl)-4-methoxy-benzamide]	3.2	7.9
COc1ccc(C(=O)NCC(N)=O)cc1C(=O)c1ccc(Nc2ccccc2)cc1Cl [Compound 203, N-Carbamoylmethyl-3-(2-chloro-4-phenylamino-benzoyl)-4-methoxy-benzamide]	3.2	6.3
COCCC(=O)Nc1ccc(C)c(C(=O)c2ccc(Nc3ccc(F)cc3F)cc2Cl)c1 [Compound 241, N-{3-[2-Chloro-4-(2,4-difluoro-phenylamino)-benzoyl]-4-methyl-phenyl}-3-methoxy-propionamide]	0.3	1.1
Cc1ccc(NC(=O)CCc2ccco2)cc1C(=O)c1ccc(Nc2ccc(F)cc2F)cc1Cl [Compound 246, N-{3-[2-Chloro-4-(2,4-difluoro-phenylamino)-benzoyl]-4-methyl-phenyl}-3-furan-2-yl-propionamide]	3.2	
Cc1ccc(NC(=O)Nc2cccc(C(F)(F)F)c2)cc1C(=O)c1ccc(Nc2ccc(F)cc2F)cc1Cl [Compound 263, 1-{3-[2-Chloro-4-(2,4-difluoro-phenylamino)-benzoyl]-4-methyl-phenyl}-3-(3-trifluoromethyl-phenyl)-urea]	1.6	
O=C(c1cc(OCCCO)ccc1F)c1ccc(Nc2ccc(F)cc2F)cc1Cl [Compound 314, [2-Chloro-4-(2,4-difluoro-phenylamino)-phenyl]-[2-fluoro-5-(3-hydroxy-propoxy)-phenyl]-methanone]	2.8	
